Reference: patent US20170066717A1, “NEW PHENYLAZETIDINECARBOXYLATE OR -CARBOXAMIDE COMPOUNDS” (INVENTIVA, priority 2014, published 2017)
Each block holds one molecule with its values, some of them ahead of it.

Experiments:
NURR-1/RXRα = target: T1, NURR-1/RXRα (Homo sapiens, UniProt P19793); experiment: Transactivation test, NURR-1-Gal4/RXRα, luciferase reporter in Cos-7 cells; format: cell-based; settings: for Emax: COS-7, induction level relative to reference XCT0135908 at 2×10^−5 M (=100%), read-out: hNurr1_RXRaFL Emax (%); for EC50: Cos-7 cells, NURR-1-Gal4/RXRα, luciferase reporter, read-out: hNurr1_RXRaFL EC50
T1 construct: expressed in transfected cells; host or cells: Cos-7 cells
Experimental: (§1) The ability of the compounds according to the invention to behave as an activator of the heterodimers formed by the NURR-1 nuclear receptor and the RXR nuclear receptors was measured by means of an in vitro test. A transactivation test was used as primary selection (screening) test. Cos-7 cells were cotransfected with a plasmid expressing a chimera of the human NURR-1-Gal4 receptor, a plasmid expressing the human RXR receptor (RXRα or RXRγ receptor) and a 5Gal4pGL3-TK-Luc reporter plasmid. The transfctions were carried out using a chemical agent (Jet PEI). The transfected cells were distributed into 384-well plates and left to stand for 21 hours. At time 24 hours the culture medium was changed. The test products were added (final concentration of between 10^''4 and 3×10^-10 M) to the culture medium. After incubation overnight, the lucifeiase expression was measured after addition of SteadyGlo according to the instructions of the manufacturer (Promega). […] The induction levels (Emax) were calculated relative to the basal activity of each heterodimer.

NURR-1/RXRγ = target: T2, NURR-1/RXRγ (Homo sapiens, UniProt P48443); experiment: Transactivation test, NURR-1-Gal4/RXRγ, luciferase reporter in Cos-7 cells; format: cell-based; settings: for Emax: COS-7, induction level relative to reference XCT0135908 at 2×10^−5 M (=100%), read-out: hNurr1_RXRgFL Emax (%); for EC50: Cos-7 cells, NURR-1-Gal4/RXRγ, luciferase reporter, read-out: hNurr1_RXRgFL EC50
T2 construct: expressed in transfected cells; host or cells: Cos-7 cells
Experimental: as §1

T2 sequence (P48443 whole entry, the tested form may be a part): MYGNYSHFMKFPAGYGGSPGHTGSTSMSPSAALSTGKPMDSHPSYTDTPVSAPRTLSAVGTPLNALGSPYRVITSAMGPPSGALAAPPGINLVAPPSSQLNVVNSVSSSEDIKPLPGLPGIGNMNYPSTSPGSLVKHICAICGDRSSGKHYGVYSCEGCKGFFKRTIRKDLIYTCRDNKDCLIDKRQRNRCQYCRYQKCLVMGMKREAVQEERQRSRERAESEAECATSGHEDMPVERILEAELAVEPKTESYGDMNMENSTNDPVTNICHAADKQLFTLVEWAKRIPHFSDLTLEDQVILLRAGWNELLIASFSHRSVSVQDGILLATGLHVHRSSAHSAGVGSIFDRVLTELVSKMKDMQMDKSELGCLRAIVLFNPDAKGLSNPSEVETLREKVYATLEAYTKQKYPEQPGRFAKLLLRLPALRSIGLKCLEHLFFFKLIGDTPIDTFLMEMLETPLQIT
T2 sequence (P43354 whole entry partner, the tested form may be a part): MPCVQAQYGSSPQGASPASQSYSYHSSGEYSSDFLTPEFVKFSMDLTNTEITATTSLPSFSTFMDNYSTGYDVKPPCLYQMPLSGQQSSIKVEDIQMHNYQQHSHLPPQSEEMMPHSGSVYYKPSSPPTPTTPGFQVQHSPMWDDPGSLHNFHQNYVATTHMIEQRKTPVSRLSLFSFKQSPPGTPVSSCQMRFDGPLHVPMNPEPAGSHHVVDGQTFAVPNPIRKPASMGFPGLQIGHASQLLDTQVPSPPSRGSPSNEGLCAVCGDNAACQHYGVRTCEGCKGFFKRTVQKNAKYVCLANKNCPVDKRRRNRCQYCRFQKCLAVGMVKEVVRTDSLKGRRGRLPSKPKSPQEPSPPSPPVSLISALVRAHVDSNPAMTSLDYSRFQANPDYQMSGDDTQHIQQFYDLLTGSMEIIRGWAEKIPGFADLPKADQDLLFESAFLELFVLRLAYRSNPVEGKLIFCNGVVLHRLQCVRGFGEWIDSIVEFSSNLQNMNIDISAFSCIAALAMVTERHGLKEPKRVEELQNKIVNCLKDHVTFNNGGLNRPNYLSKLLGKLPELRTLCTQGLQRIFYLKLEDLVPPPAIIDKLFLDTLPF
T2 sequence (P04386 1-147 partner limits assumed): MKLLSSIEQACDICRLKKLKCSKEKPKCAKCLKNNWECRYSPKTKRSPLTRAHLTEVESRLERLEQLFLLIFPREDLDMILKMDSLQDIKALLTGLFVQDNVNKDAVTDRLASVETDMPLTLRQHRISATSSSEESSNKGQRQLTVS
T1 sequence (P19793 whole entry, the tested form may be a part): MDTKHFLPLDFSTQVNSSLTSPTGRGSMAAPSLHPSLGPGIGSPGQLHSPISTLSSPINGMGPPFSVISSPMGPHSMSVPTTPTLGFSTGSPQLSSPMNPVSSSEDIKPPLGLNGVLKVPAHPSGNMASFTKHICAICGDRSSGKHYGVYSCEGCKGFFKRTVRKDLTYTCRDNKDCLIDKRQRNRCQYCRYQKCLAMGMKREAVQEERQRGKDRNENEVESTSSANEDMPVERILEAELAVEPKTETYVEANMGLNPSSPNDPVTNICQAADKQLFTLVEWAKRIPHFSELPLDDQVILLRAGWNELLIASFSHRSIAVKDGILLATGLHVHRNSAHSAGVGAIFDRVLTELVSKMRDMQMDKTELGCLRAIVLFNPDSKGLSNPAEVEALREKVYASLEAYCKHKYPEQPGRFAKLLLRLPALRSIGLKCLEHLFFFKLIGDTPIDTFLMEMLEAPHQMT
T1 sequence (P43354 whole entry partner, the tested form may be a part): as the sequence (P43354 whole entry partner, the tested form may be a part) above
T1 sequence (P04386 1-147 partner limits assumed): as the sequence (P04386 1-147 partner limits assumed) above

- Emax (NURR-1/RXRα): 103%
- EC50 (NURR-1/RXRα): 54 nM
- Emax (NURR-1/RXRγ): 110%
- EC50 (NURR-1/RXRγ): 86 nM
SMILES: Cc1cn(-c2cccc(N3CC(C(=O)NC4CCOCC4)C3)c2)c2ccc(C(F)(F)F)cc12 [Example 180, 1-[3-[3-methyl-5-(trifluorometnyl)indol-1-yl]phenyl]-N-tetrahydropyran-4-yl-azetidine-3-carboxamide]

- Emax (NURR-1/RXRα): 70%
- EC50 (NURR-1/RXRα): 2950 nM
SMILES: CC1(C)Oc2cc(C#N)ccc2N(c2cccc(N3CC(C(=O)O)C3)c2)C1=O [Example 254, tert-butylammonium 1-[3-(7-cyano-2,2-dimethyl-3-oxo-1,4-benzoxazin-4-yl)phenyl]azetidine-3-carboxylate]

- Emax (NURR-1/RXRα): 105%
- EC50 (NURR-1/RXRα): 15 nM
- Emax (NURR-1/RXRγ): 92%
- EC50 (NURR-1/RXRγ): 150 nM
SMILES: CC1(C)CN(c2cccc(N3CC(C(=O)NC(CO)CO)C3)c2)c2ccc(C(F)(F)F)cc2O1 [Example 276, 1-[3-[2,2-dimethyl-7-(trifluoromethyl)-3H-1,4-benzoxazin-4-yl]phenyl]N-[2-hydroxy-1-(hydroxymethyl)ethyl]azetidine-3-carboxamide]

- Emax (NURR-1/RXRα): 116%
- EC50 (NURR-1/RXRα): 10 nM
- Emax (NURR-1/RXRγ): 116%
- EC50 (NURR-1/RXRγ): 10 nM
SMILES: Cc1cn(-c2cccc(N3CC(C(=O)NC(C)C)C3)c2)c2ccc(C(F)(F)F)cc12 [Example 152, N-isopropyl-1-[3-[3-methyl-5-(trifluoromethyl)indol-1-yl]phenyl]azetidine-3-carboxamide]

- Emax (NURR-1/RXRα): 103%
- EC50 (NURR-1/RXRα): 19 nM
- Emax (NURR-1/RXRγ): 97%
- EC50 (NURR-1/RXRγ): 52 nM
SMILES: CC1(C)CN(c2cccc(N3CC(C(=O)NCC(O)CO)C3)c2)c2ccc(C(F)(F)F)cc2O1 (centres unmarked) [Example 277, N-(2,3-dihydroxypropyl)-1-[3-[2,2-dimethyl-7-(trifluoromethyl)-3H-1,4-benzoxazin-4-yl]phenyl]azetidine-3-carboxamide]

- Emax (NURR-1/RXRα): 100%
- EC50 (NURR-1/RXRα): 823 nM
- Emax (NURR-1/RXRγ): 93%
- EC50 (NURR-1/RXRγ): 1380 nM
SMILES: Cc1cn(-c2cccc(N3CC(C(=O)NC4CCN(C)CC4)C3)c2)c2ccc(C(F)(F)F)cc12 [Example 162, N-(1-methyl-4-piperidyl)-1-[3-[3-methyl-5-(trifluromethyl)indol-1-yl]phenyl]azetidine-3-carboxamide]

- Emax (NURR-1/RXRα): 99%
- EC50 (NURR-1/RXRα): 5 nM
SMILES: CC1(C)CC(c2cccc(N3CC(C(=O)O)C3)c2)c2ccc(C(F)(F)F)cc2O1 (centres unmarked) [Example 270, tert-butylammonium 1-[3-[2,2-dimethyl-7-(trifluoromethyl)chroman-4-yl]phenyl]azetidine-3-carboxylate]

- Emax (NURR-1/RXRα): 89%
- EC50 (NURR-1/RXRα): 114 nM
SMILES: CC(C)c1ccc2c(c1)CC(C)(C)CN2c1cccc(N2CC(C(=O)O)C2)c1 [Example 245, tert-butylammonium 1-[3-(6-isopropyl-3,3-dimethyl-2,4-dihydroquinolin-1-yl)phenyl]azetidine-3-carboxylate]

- Emax (NURR-1/RXRα): 77%
- EC50 (NURR-1/RXRα): 0.79 nM
SMILES: CN1CC2(CCC2)Oc2cc(C(C)(C)C)cc(-c3cccc(N4CC(C(=O)O)C4)c3)c21 [Example 213, tert-butylammonium 1-[3-(7-tert-butyl-4-methyl-spiro[3H-1,4-benzoxazine-2,1′-cyclobutane]-5-yl)phenyl]azetidine-3-carboxylate]

- Emax (NURR-1/RXRα): 61%
- EC50 (NURR-1/RXRα): 1 nM
SMILES: CC1(C)CN(CC(F)(F)F)c2c(cc(C(F)(F)F)cc2-c2cccc(N3CC(C(=O)O)C3)c2)O1 [Example 215, tert-butylammonium 1-[3-[2,2-dimethyl-4 (2,2,2-trifluoromethyl)-7-(trifluoromethyl)-3H-1,4-benzoxazin-5-yl]phenyl]azetidine-3-carboxylate]

More lines, now with the values behind:

SMILES: Cc1cn(-c2cccc(N3CC(C(=O)O)C3)c2)c2ccc(C(F)(F)F)cc12 [Example 41, 1-[3-[3-methyl-5-(trifluoromethyl)indol-1-yl]phenyl]azetidine-3-carboxylic acid]
- Emax (NURR-1/RXRα): 134%
- EC50 (NURR-1/RXRα): 0.5 nM
- Emax (NURR-1/RXRγ): 123%
- EC50 (NURR-1/RXRγ): 0.7 nM

SMILES: Cc1nc(-c2ccccc2)oc1-c1cccc(N2CC(C(=O)O)C2)c1 [Example 33, 1-[3-(4-methyl-2-phenyl-oxazol-5-yl)phenyl]azetidine-3-carboxylic acid]
- Emax (NURR-1/RXRα): 119%
- EC50 (NURR-1/RXRα): > 5000 nM
- Emax (NURR-1/RXRγ): 71%
- EC50 (NURR-1/RXRγ): > 5000 nM

SMILES: Cc1cc(-c2ccc3c(c2)C(C)(C)CCC3(C)C)cc(N2CC(C(=O)O)C2)c1 [Example 9, 1-[3-methyl-5-(1,1,4,4-tetramethyltetralin-6-yl)phenyl]azetidine-3-carboxylic acid]
- Emax (NURR-1/RXRα): 82%
- EC50 (NURR-1/RXRα): 7 nM
- Emax (NURR-1/RXRγ): 86%
- EC50 (NURR-1/RXRγ): 16 nM

SMILES: Cc1cn(-c2cccc(N3CC(C(=O)NS(=O)(=O)C(F)(F)F)C3)c2)c2ccc(C(F)(F)F)cc12 [Example 151, 1-[3-[3-methyl-5-(trifluoromethyl)indol-1-yl]phenyl]-N-(trifluoromethylsulfonyl)azetidine-3-carboxamide]
- Emax (NURR-1/RXRα): 95%
- EC50 (NURR-1/RXRα): 4 nM
- Emax (NURR-1/RXRγ): 73%
- EC50 (NURR-1/RXRγ): 7 nM

SMILES: Cc1cc(-c2cccc(N3CCCC3)c2)cc(N2CC(C(=O)O)C2)c1 [Example 4, 1-[3-methyl-5-(3-pyrrolidin-1-ylphenyl)phenyl]azetidine-3-carboxlic acid]
- Emax (NURR-1/RXRα): 96%
- EC50 (NURR-1/RXRα): 38 nM
- Emax (NURR-1/RXRγ): 100%
- EC50 (NURR-1/RXRγ): 28 nM

SMILES: CCCCOc1ccc(C(F)(F)F)cc1-c1cccc(N2CC(C(=O)O)C2)c1 [Example 89]
- Emax (NURR-1/RXRα): 61%
- EC50 (NURR-1/RXRα): 23 nM
- Emax (NURR-1/RXRγ): 64%
- EC50 (NURR-1/RXRγ): 21 nM

SMILES: Cc1cc(C)cc(COc2ccc(C(F)(F)F)cc2-c2cccc(N3CC(C(=O)O)C3)c2)c1 [Example 106, 1-[3-[2-[(3,5-dimethylphenyl)methoxy]-5-(trifluoromethyl)phenyl]phenyl]azetidine-3-carboxylic acid]
- Emax (NURR-1/RXRα): 40%
- EC50 (NURR-1/RXRα): 13 nM
- Emax (NURR-1/RXRγ): 36%
- EC50 (NURR-1/RXRγ): 13 nM

SMILES: Cc1cc(-c2cccc(C(F)(F)F)c2F)cc(N2CC(C(=O)O)C2)c1 [Example 23, 1-[3-[2-fluoro-3-(trifluoromethyl)phenyl]-5-methylphenyl]azetidine-3-carboxylic acid]
- Emax (NURR-1/RXRα): 111%
- EC50 (NURR-1/RXRα): 13 nM
- Emax (NURR-1/RXRγ): 107%
- EC50 (NURR-1/RXRγ): 30 nM

SMILES: CC(C)(C)c1cc(-c2cccc(N3CC(C(=O)O)C3)c2)nc(C(C)(C)C)n1 [Example 81, 1-[3-(2,6-di-tert-butylpyrimidin-4-yl)phenyl]azetidine-3-carboxylic acid]
- Emax (NURR-1/RXRα): 108%
- EC50 (NURR-1/RXRα): 50 nM
- Emax (NURR-1/RXRγ): 107%
- EC50 (NURR-1/RXRγ): 112 nM

SMILES: CNS(=O)(=O)c1cn(-c2cccc(N3CC(C(=O)O)C3)c2)c2ccc(C(F)(F)F)cc12 [Example 137]
- Emax (NURR-1/RXRα): 82%
- EC50 (NURR-1/RXRα): 995 nM
- Emax (NURR-1/RXRγ): 85%
- EC50 (NURR-1/RXRγ): 2090 nM

SMILES: Cc1cc(N2CC(C(=O)O)C2)cc(-n2cc(C)c3cc(Cl)ccc32)c1 [Example 45]
- Emax (NURR-1/RXRα): 96%
- EC50 (NURR-1/RXRα): 2 nM
- Emax (NURR-1/RXRγ): 107%
- EC50 (NURR-1/RXRγ): 3 nM

SMILES: COc1cc(N2CC(C(=O)O)C2)cc(-n2cc(C)c3cc(C(F)(F)F)ccc32)c1 [Example 51, 1-[3-methoxy-5-[3-methyl-5-(trifluoromethyl)indol-1-yl]phenyl]azetidine-3-carboxylic acid]
- Emax (NURR-1/RXRα): 91%
- EC50 (NURR-1/RXRα): 17 nM
- Emax (NURR-1/RXRγ): 106%
- EC50 (NURR-1/RXRγ): 29 nM

SMILES: Cc1cc(-c2cc(C(F)(F)F)nc3ccccc23)cc(N2CC(C(=O)O)C2)c1 [Example 21, 1-[3-methyl-5-[2-(trifluoromethyl)-4-quinolyl]phenyl]azetidine-3-carboxylic acid]
- Emax (NURR-1/RXRα): 102%
- EC50 (NURR-1/RXRα): 13 nM
- Emax (NURR-1/RXRγ): 101%
- EC50 (NURR-1/RXRγ): 4 nM

SMILES: CC(C)C(Oc1ccc(C(F)(F)F)cc1-c1cccc(N2CC(C(=O)O)C2)c1)C(C)C [Example 101, 1-[3-[2-(1-isopropyl-2-methlypropoxy)-5-(trifluoromethyl)phenyl]phenyl]azetidine-3-carboxylic acid]
- Emax (NURR-1/RXRα): 55%
- EC50 (NURR-1/RXRα): 118 nM
- Emax (NURR-1/RXRγ): 41%
- EC50 (NURR-1/RXRγ): 60 nM

SMILES: O=C(O)C1CN(c2cccc(-c3cccc(C(F)(F)F)c3)c2)C1 [Example 14, 1-[3-[3-(trifluoromethyl)phenyl]phenyl]azetidine-3-carboxylic acid]
- Emax (NURR-1/RXRα): 99%
- EC50 (NURR-1/RXRα): 53 nM
- Emax (NURR-1/RXRγ): 106%
- EC50 (NURR-1/RXRγ): 114 nM

SMILES: Cc1cn(-c2cc(OC(C)C)cc(N3CC(C(=O)O)C3)c2)c2ccc(C(F)(F)F)cc12 [Example 54, 1-[3-isopropoxy-5-[3-methyl-5-(trifloruomethyl)indol-1-yl]phenyl]azetidine-3-carboxylic acid]
- Emax (NURR-1/RXRα): 76%
- EC50 (NURR-1/RXRα): 1400 nM
- Emax (NURR-1/RXRγ): 100%
- EC50 (NURR-1/RXRγ): 2240 nM

SMILES: CC(C)COc1ccc(C(F)(F)F)cc1-c1cccc(N2CC(C(=O)O)C2)c1 [Example 94, 1-[3-[2-isobutoxy-5-(trifluoromethyl)phenyl]phenyl]azetidine-3-carboxylic acid]
- Emax (NURR-1/RXRα): 48%
- EC50 (NURR-1/RXRα): 18 nM

SMILES: COc1ccccc1C(C)Oc1ccc(C(F)(F)F)cc1-c1cccc(N2CC(C(=O)O)C2)c1 (centres unmarked) [Example 95, 1-[3-[2-[1-(2-methoxyphenyl)ethoxy]-5-(triflurooemethyl)phenyl]phenyl]azetidine-3-carboxylic acid]
- Emax (NURR-1/RXRα): 46%
- EC50 (NURR-1/RXRα): 20 nM
